Legend:
Assay in all cases: kinome scan
Type in all cases: binding
PIP5K2C = molecular target: T1, PIP5K2C (Homo sapiens, UniProt Q8TBX8)
T1 construct: purchased DiscoverX (KINOMEscan)

BRSK2 = molecular target: T2, BRSK2 (Homo sapiens, UniProt Q8IWQ3); conditions: 10 µM
T2 construct: purchased DiscoverX (KINOMEscan)

EPHB2 = molecular target: T3, EPHB2 (Homo sapiens, UniProt P29323); conditions: 10 µM
T3 construct: purchased DiscoverX (KINOMEscan)

p38-gamma = molecular target: T4, p38-gamma (Homo sapiens, UniProt P53778); conditions: 10 µM
T4 construct: purchased DiscoverX (KINOMEscan)

IRAK1 = molecular target: T5, IRAK1 (Homo sapiens, UniProt P51617); conditions: 10 µM
T5 construct: purchased DiscoverX (KINOMEscan)

ULK2 = molecular target: T6, ULK2 (Homo sapiens, UniProt Q8IYT8); conditions: 10 µM
T6 construct: purchased DiscoverX (KINOMEscan)

LATS1 = molecular target: T7, LATS1 (Homo sapiens, UniProt O95835); conditions: 10 µM
T7 construct: purchased DiscoverX (KINOMEscan)

CSNK1D = molecular target: T8, CSNK1D (Homo sapiens, UniProt P48730); conditions: 10 µM
T8 construct: purchased DiscoverX (KINOMEscan)

SgK110 = molecular target: T9, SgK110 (Homo sapiens, UniProt P0C264); conditions: 10 µM
T9 construct: purchased DiscoverX (KINOMEscan)

ERBB2 = molecular target: T10, ERBB2 (Homo sapiens, UniProt P04626); conditions: 10 µM
T10 construct: purchased DiscoverX (KINOMEscan)

LZK = molecular target: T11, LZK (Homo sapiens, UniProt O43283); conditions: 10 µM
T11 construct: purchased DiscoverX (KINOMEscan)

TRKA = molecular target: T12, TRKA (Homo sapiens, UniProt P04629); conditions: 10 µM
T12 construct: purchased DiscoverX (KINOMEscan)

[1] = molecular target: T13, TYK2(JH1domain-catalytic) (Homo sapiens, UniProt P29597); conditions: 10 µM
T13 construct: TYK2(JH1domain-catalytic); purchased DiscoverX (KINOMEscan)

PKNB(M.tuberculosis) = molecular target: T14, PKNB(M.tuberculosis) (Mycobacterium tuberculosis, UniProt P9WI81); conditions: 10 µM
T14 construct: purchased DiscoverX (KINOMEscan)

TRPM6 = molecular target: T15, TRPM6 (Homo sapiens, UniProt Q9BX84); conditions: 10 µM
T15 construct: purchased DiscoverX (KINOMEscan)

MYLK2 = molecular target: T16, MYLK2 (Homo sapiens, UniProt Q9H1R3); conditions: 10 µM
T16 construct: purchased DiscoverX (KINOMEscan)

CAMK1G = molecular target: T17, CAMK1G (Homo sapiens, UniProt Q96NX5); conditions: 10 µM
T17 construct: purchased DiscoverX (KINOMEscan)

MTOR = molecular target: T18, MTOR (Homo sapiens, UniProt P42345); conditions: 10 µM
T18 construct: purchased DiscoverX (KINOMEscan)

BTK = molecular target: T19, BTK (Homo sapiens, UniProt Q06187); conditions: 10 µM
T19 construct: purchased DiscoverX (KINOMEscan)

TAOK3 = molecular target: T20, TAOK3 (Homo sapiens, UniProt Q9H2K8); conditions: 10 µM
T20 construct: purchased DiscoverX (KINOMEscan)

PIK3CB = molecular target: T21, PIK3CB (Homo sapiens, UniProt P42338)
T21 construct: purchased DiscoverX (KINOMEscan)

MAP4K4 = molecular target: T22, MAP4K4 (Homo sapiens, UniProt O95819); conditions: 10 µM
T22 construct: purchased DiscoverX (KINOMEscan)

ERBB4 = molecular target: T23, ERBB4 (Homo sapiens, UniProt Q15303); conditions: 10 µM
T23 construct: purchased DiscoverX (KINOMEscan)

p38-delta = molecular target: T24, p38-delta (Homo sapiens, UniProt O15264); conditions: 10 µM
T24 construct: purchased DiscoverX (KINOMEscan)

ARK5 = molecular target: T25, ARK5 (Homo sapiens, UniProt O60285); conditions: 10 µM
T25 construct: purchased DiscoverX (KINOMEscan)

PRKR = molecular target: T26, PRKR (Homo sapiens, UniProt P19525); conditions: 10 µM
T26 construct: purchased DiscoverX (KINOMEscan)

MAP3K3 = molecular target: T27, MAP3K3 (Homo sapiens, UniProt Q99759); conditions: 10 µM
T27 construct: purchased DiscoverX (KINOMEscan)

DMPK = molecular target: T28, DMPK (Homo sapiens, UniProt Q09013); conditions: 10 µM
T28 construct: purchased DiscoverX (KINOMEscan)

PRKD2 = molecular target: T29, PRKD2 (Homo sapiens, UniProt Q9BZL6); conditions: 10 µM
T29 construct: purchased DiscoverX (KINOMEscan)

CDKL3 = molecular target: T30, CDKL3 (Homo sapiens, UniProt Q8IVW4); conditions: 10 µM
T30 construct: purchased DiscoverX (KINOMEscan)

CLK3 = molecular target: T31, CLK3 (Homo sapiens, UniProt P49761); conditions: 10 µM
T31 construct: purchased DiscoverX (KINOMEscan)

MLK1 = molecular target: T32, MLK1 (Homo sapiens, UniProt P80192); conditions: 10 µM
T32 construct: purchased DiscoverX (KINOMEscan)

STK39 = molecular target: T33, STK39 (Homo sapiens, UniProt Q9UEW8); conditions: 10 µM
T33 construct: purchased DiscoverX (KINOMEscan)

[2] = molecular target: T34, ABL1(F317L)-phosphorylated (Homo sapiens, UniProt P00519, F317L); conditions: 10 µM
T34 construct: purchased DiscoverX (KINOMEscan)

[3] = molecular target: T35, JAK1(JH1domain-catalytic) (Homo sapiens, UniProt P23458); conditions: 10 µM
T35 construct: JAK1(JH1domain-catalytic); purchased DiscoverX (KINOMEscan)

GSK3B = molecular target: T36, GSK3B (Homo sapiens, UniProt P49841); conditions: 10 µM
T36 construct: purchased DiscoverX (KINOMEscan)

TAOK2 = molecular target: T37, TAOK2 (Homo sapiens, UniProt Q9UL54); conditions: 10 µM
T37 construct: purchased DiscoverX (KINOMEscan)

SIK2 = molecular target: T38, SIK2 (Homo sapiens, UniProt Q9H0K1); conditions: 10 µM
T38 construct: purchased DiscoverX (KINOMEscan)

CSNK1A1L = molecular target: T39, CSNK1A1L (Homo sapiens, UniProt Q8N752); conditions: 10 µM
T39 construct: purchased DiscoverX (KINOMEscan)

PCTK3 = molecular target: T40, PCTK3 (Homo sapiens, UniProt Q07002); conditions: 10 µM
T40 construct: purchased DiscoverX (KINOMEscan)

WEE2 = molecular target: T41, WEE2 (Homo sapiens, UniProt P0C1S8); conditions: 10 µM
T41 construct: purchased DiscoverX (KINOMEscan)

EPHB6 = molecular target: T42, EPHB6 (Homo sapiens, UniProt O15197); conditions: 10 µM
T42 construct: purchased DiscoverX (KINOMEscan)

PIK4CB = molecular target: T43, PIK4CB (Homo sapiens, UniProt Q9UBF8)
T43 construct: purchased DiscoverX (KINOMEscan)
T43 sequence (Q9UBF8 whole entry): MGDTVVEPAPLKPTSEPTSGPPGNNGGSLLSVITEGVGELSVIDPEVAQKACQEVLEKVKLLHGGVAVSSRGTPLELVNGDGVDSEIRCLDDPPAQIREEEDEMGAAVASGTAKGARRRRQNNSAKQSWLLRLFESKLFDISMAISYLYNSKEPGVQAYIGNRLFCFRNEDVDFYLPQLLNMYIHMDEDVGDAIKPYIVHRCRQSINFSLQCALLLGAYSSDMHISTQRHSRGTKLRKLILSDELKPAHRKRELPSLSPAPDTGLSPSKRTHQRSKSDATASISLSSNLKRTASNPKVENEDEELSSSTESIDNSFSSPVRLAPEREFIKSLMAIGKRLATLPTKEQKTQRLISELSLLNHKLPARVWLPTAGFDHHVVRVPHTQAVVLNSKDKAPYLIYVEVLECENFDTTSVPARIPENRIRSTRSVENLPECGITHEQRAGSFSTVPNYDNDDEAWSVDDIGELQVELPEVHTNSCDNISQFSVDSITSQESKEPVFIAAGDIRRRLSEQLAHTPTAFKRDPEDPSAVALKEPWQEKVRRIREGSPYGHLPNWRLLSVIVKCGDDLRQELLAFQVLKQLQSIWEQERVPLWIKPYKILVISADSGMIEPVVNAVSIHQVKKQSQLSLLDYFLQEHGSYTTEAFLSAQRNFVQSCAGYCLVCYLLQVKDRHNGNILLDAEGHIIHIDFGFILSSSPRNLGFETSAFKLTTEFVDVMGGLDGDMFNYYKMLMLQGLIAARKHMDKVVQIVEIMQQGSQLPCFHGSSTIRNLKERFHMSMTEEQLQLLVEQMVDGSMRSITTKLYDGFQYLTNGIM

T1 sequence (Q8TBX8 whole entry): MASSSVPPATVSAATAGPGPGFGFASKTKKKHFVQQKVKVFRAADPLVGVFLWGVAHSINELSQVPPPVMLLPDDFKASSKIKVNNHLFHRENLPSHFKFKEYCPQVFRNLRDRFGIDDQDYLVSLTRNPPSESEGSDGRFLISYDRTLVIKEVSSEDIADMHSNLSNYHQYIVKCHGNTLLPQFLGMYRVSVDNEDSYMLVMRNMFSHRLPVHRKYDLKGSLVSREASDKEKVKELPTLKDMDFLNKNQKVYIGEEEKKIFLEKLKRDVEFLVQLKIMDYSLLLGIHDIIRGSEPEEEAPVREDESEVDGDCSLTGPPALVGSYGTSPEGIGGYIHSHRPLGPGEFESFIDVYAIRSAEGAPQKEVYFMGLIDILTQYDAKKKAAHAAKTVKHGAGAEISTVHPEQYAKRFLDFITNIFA
T21 sequence (P42338 whole entry): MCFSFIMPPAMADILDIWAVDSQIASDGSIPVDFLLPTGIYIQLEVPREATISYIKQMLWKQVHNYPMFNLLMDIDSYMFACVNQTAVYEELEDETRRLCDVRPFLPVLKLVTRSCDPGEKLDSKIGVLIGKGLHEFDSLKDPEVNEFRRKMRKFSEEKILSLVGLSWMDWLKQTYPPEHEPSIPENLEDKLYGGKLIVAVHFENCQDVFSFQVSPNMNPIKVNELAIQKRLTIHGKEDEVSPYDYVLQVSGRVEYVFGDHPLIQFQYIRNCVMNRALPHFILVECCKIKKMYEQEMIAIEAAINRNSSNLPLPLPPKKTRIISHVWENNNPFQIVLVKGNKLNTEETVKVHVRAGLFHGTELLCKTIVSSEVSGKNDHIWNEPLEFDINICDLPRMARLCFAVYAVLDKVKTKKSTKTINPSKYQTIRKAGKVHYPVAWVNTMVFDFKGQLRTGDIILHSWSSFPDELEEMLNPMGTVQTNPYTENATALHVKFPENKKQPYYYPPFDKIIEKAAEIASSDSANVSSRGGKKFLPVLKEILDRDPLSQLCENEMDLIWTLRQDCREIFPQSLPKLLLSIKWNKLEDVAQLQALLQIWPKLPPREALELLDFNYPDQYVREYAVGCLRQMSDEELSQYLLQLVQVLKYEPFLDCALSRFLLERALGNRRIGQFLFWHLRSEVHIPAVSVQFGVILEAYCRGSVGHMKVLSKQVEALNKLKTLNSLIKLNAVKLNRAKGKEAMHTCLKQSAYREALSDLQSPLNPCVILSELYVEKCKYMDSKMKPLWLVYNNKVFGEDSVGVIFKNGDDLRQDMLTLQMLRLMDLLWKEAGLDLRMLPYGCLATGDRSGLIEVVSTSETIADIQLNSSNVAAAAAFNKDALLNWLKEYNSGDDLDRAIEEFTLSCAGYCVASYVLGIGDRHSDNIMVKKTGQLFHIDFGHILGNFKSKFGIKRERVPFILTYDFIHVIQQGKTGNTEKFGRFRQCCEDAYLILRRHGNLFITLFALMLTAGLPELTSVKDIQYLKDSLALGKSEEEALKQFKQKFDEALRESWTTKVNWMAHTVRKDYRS
T24 sequence (O15264 whole entry): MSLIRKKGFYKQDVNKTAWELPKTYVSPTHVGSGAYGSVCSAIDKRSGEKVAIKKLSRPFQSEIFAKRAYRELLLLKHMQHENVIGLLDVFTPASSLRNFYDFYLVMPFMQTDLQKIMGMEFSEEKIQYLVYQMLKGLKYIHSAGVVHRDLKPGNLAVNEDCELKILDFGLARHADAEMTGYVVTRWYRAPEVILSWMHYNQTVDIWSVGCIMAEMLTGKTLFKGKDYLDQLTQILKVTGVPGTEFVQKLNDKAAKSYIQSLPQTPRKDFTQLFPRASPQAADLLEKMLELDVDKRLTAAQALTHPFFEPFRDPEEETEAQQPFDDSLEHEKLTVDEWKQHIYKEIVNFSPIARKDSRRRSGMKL
T9 sequence (P0C264 whole entry): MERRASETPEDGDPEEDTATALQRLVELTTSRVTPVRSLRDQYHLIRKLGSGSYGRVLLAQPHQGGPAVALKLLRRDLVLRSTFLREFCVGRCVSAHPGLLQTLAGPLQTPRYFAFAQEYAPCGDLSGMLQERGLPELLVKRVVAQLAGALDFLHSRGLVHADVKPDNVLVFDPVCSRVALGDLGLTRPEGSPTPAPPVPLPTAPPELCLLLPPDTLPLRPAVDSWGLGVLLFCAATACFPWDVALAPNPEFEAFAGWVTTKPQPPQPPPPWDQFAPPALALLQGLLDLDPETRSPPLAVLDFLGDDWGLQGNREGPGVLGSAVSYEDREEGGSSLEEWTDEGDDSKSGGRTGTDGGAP
T11 sequence (O43283 whole entry): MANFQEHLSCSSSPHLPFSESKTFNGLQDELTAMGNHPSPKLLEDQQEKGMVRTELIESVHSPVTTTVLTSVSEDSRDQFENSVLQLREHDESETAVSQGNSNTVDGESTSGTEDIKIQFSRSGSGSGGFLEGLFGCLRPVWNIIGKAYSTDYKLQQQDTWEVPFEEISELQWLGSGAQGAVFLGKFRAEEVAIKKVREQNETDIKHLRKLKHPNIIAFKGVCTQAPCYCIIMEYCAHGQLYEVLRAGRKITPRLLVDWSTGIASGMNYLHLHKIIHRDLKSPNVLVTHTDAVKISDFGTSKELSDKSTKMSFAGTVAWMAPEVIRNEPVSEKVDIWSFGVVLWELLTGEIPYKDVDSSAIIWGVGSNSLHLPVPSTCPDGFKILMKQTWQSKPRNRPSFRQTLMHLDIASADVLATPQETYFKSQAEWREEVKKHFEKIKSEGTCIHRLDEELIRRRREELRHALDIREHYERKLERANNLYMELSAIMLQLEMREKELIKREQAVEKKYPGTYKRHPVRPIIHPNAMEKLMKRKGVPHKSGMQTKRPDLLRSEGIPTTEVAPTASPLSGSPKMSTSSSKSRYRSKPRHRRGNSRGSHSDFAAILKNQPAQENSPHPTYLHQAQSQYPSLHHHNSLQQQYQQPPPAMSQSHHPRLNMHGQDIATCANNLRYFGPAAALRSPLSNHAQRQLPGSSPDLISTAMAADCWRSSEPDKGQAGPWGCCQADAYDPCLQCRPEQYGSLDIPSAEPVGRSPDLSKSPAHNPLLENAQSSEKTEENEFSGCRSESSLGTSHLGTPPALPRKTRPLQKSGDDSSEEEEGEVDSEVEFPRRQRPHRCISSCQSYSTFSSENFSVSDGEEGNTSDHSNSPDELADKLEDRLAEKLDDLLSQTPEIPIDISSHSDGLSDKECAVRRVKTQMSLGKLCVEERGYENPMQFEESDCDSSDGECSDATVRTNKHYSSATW
T31 sequence (P49761 whole entry): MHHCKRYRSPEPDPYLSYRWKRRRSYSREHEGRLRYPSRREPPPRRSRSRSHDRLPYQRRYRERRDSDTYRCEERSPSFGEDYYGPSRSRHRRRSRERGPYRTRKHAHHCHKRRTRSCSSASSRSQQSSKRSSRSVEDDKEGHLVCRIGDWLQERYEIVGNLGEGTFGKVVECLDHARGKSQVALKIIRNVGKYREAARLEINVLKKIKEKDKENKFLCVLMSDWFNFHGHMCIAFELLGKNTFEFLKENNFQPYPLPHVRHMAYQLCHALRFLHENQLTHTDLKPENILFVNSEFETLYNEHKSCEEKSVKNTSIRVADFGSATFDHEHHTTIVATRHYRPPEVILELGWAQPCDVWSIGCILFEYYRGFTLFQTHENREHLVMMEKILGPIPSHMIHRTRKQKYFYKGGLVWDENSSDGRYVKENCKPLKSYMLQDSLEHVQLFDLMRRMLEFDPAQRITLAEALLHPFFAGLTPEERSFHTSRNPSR
T13 sequence (P29597 888-1187 limits assumed): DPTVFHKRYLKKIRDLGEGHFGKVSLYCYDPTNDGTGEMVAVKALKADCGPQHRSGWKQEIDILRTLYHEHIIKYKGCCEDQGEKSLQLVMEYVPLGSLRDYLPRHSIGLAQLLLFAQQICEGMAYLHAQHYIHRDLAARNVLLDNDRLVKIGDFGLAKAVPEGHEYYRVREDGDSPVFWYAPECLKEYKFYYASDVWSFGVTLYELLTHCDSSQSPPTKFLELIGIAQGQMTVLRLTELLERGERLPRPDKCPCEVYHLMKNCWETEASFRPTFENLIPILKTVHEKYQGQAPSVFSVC

Q: What does the source list for `Nc1ccc(N=Nc2ccccc2)c(N)n1` [phenazopyridine, 2,6-diamino-3-(phenylazo)pyridine]?
A: remaining binding (% of control) (PIP5K2C; 10 µM): 2.3; remaining binding at 10 µM (PIP5K2C; read-out: % Of control): 2.3%; kinase inhibition (BRSK2): 90; kinase inhibition (EPHB2): 70; kinase inhibition (p38-gamma): 100; kinase inhibition (IRAK1): 100; kinase inhibition (ULK2): 96; kinase inhibition (LATS1): 87; kinase inhibition (CSNK1D): 50; kinase inhibition (SgK110): 100; kinase inhibition (ERBB2): 64; kinase inhibition (LZK): 100; kinase inhibition (TRKA): 100; remaining binding (% of control) [1]: 100; remaining binding (% of control) (PKNB(M.tuberculosis)): 96; kinase inhibition (TRPM6): 100; kinase inhibition (MYLK2): 91; kinase inhibition (CAMK1G): 88; kinase inhibition (MTOR): 74; kinase inhibition (BTK): 100; kinase inhibition (TAOK3): 79; remaining binding (% of control) (PIK3CB; 10 µM): 22; remaining binding at 10 µM (PIK3CB; read-out: % Of control): 22%; kinase inhibition (MAP4K4): 100; kinase inhibition (ERBB4): 78; kinase inhibition (p38-delta): 89; kinase inhibition (ARK5): 89; kinase inhibition (PRKR): 86; kinase inhibition (MAP3K3): 89; kinase inhibition (DMPK): 89; kinase inhibition (PRKD2): 100; kinase inhibition (CDKL3): 74; kinase inhibition (CLK3): 99; kinase inhibition (MLK1): 87; kinase inhibition (STK39): 100; kinase inhibition [2]: 64; kinase inhibition [3]: 97; kinase inhibition (GSK3B): 100; kinase inhibition (TAOK2): 91; kinase inhibition (SIK2): 92; kinase inhibition (CSNK1A1L): 100; kinase inhibition (PCTK3): 75; kinase inhibition (WEE2): 100; kinase inhibition (EPHB6): 67; remaining kinase binding (% of control) (PIK4CB; 10 µM): 4.6; remaining binding at 10 µM (PIK4CB; read-out: % Of control): 4.6%

— paper PMC8371461 (Frontiers in Pharmacology, 2021)
